Tests used:
STAT5 = assay: Epo induced STAT5 phosphorylation in HEL cells (Western immunoblotting); assay type: cell-based, human; settings: serum deprived HEL cells; 5 μM for 0.5-3 h or 0.5-10 μM for 3 h; Epo 10 units/ml 5 min
Method: FIG. 1. • A) Overnight serum deprived HEL cells were stimulated with Epo (10 units/ml) for 5, 10, 20, 30, 45 and 60 min. JAK2, pYJAK2, STAT5 and pYSTAT5 were detected using Western immunoblotting as described in methods. B) Overnight serum deprived HEL cells were pre-incubated with compound 4 (C4) (5 μM) for 0.5, 1, 2, and 3 h, and subsequently stimulated with 10 units/ml Epo for 5 min. JAK2, pYJAK2, STAT5 and pYSTAT5 were detected using Western immunoblotting as described in methods. C) Overnight serum deprived HEL cells were pre-incubated with C4 at increasing concentrations (0.5-10 μM) for 3 h, and subsequently stimulated with 10 units/ml Epo for 5 min. JAK2, pJAK2, STAT5 and pSTAT5 were detected using Western immunoblotting as described in methods. […]
For total protein extraction, cells were scraped with RIPA 1× lysis buffer (25 mM Tris-HCl pH 7.6, 150 mM NaCl, 1% NP-40, 1% sodium deoxycholate, 0.1% SDS, no. 89900, Thermo Scientific, Rockford, Ill., USA) supplemented with 1× protease and 1× phosphatase inhibitor cocktails (100× Halt™ Protease Inhibitor Cocktail, no. 87786 and 100× Halt™ Phosphatase Inhibitor Cocktail, no. 78420, both from Thermo Scientific, Rockford, Ill., USA). An aliquot of each extract was preserved for protein quantification by bicinchoninic acid assay (Pierce® BCA Protein Assay Kit, no. 23225, Thermo Scientific, Rockford, Ill., USA). […]

HEL cells = assay: HEL-based MTT cell viability assay; design: species or system human; settings: Homo sapiens, 48 h, read-out: Activity (IC50, reduction of cell viability)
Method: (§1) Cell viability was assayed by measuring the mitochondrial reduction of the tetrazolium salt 3-(4,5-methyltiazol-2yl)-2,5diphenyl-tetrazolium bromide] (MTT) (Applichen; A2231,0010) (Mosmann T. J Immunol Methods. 1983 16; 65(1-2):55-63; Chuan Y-C et al 2010. Oncogene. 29 (10), 1531-1542. Cells were seeded in 96-well plates in medium supplemented with 10% FBS (Lonza Cat. No: 14-502F), 2 mM L-Glut (Lonza Cat. No: BE17-605E) and 100 U/ml PEST (Lonza Cat. No: DE17-605E) at a cell density of 5000-20000 cells/well. Cells were seeded at a density according to their exponential growth phase. Vehicle (0.05% DMSO) or drug were added to culture medium at the indicated concentrations (10 to 0.01 microM) during 48 h. Then, MTT (0.3 mg/ml) was added to cells following by incubation for 2-4 h at 37° C. in the dark. The medium was then discarded and the formazan precipitate was solubilized by addition of 20% SDS (Sigma; L-5750) in 0.02N HCl (Panreac; 131020.1611) for 12-16 h. The optical density was measured at 595 nm with the iMark Microplate Reader (BioRad, USA). Data was expressed as percent growth above the level in controls and the results in figures were plotted as means±SEM of each test point from 3 replicates.
(§2) Statistical analysis. The concentration of drug that provokes 50% reduction of cell viability (IC50) was determined by using non-linear regression analysis and data were fitted to a log concentration vs normalized response curve in GraphPad software v5 (San Diego, Calif.).

K562 cells = assay: K562-based MTT cell viability assay; design: species or system human; settings: Homo sapiens, 48 h, read-out: Activity (IC50, reduction of cell viability)
Method: as §1, §2

K562 tumors = assay: In vivo efficacy, K562 tumor xenografts in NOD-SCID mice; settings: 10 mg/kg i.p. daily except Saturdays and Sundays, 25 day study; P=0.004 day 4, P=0.007 day 25
Excerpt: Mice were sacrificed when their tumor diameters reached 2 cm, or when they became moribund.

N#Cc1ccc(C2C3=C(CCCC3=O)OC3=C2C(=O)c2ccccc2C3=O)cc1 (stereo not shown) [Compound 4, 4-(1,6,11-trioxo-2,3,4,6,11,12-hexahydro-1H-benzo[b]xanthen-12-yl)benzonitrile]
Epo-induced phosphorylation of STAT5 (STAT5): inhibits, in a time/dose dependent manner | IC50 (HEL cells): < 3000 nM | IC50 (K562 cells): < 1000 nM | tumor growth (tumor volume) compared to control group (K562 tumors): pronounced, and statistically significant reduction

Reference: patent US20150175585A1, “FUSED QUINONIC COMPOUNDS” (CENTRO ATLANTICO DEL MEDICAMENTO S.A (CEAMED, S.A.), priority 2012, published 2015)
